This is an account of results in ChEMBL document CHEMBL1123664, “Preparation and antitumor activity of new mitomycin A analogues” (J Med Chem, 1987).

For orientation: T/C means the result in the treated group divided by that in the control group, in per cent. What is called logP is the decadic logarithm of the partition coefficient of the neutral form, usually between octanol and water. Read a low logP as lower lipophilicity.

In data set [1] the test system is B16. Put plainly: Antitumor activity against subcutaneously B16 melanoma cells in mice expressed as ratio of median survival time for treated group to that of control group at an optimal dose of 1.2 mg/kg. It counts as functional, Mus musculus. Particulars: route subcutaneous.
Data set [2] deals with B16. In words: Antitumor activity against subcutaneously B16 melanoma cells in mice at an optimal dose of 1.2 mg/kg expressed as […] effective dose. It counts as functional. Particulars: Mus musculus, B16, sc, route subcutaneous, read-out: MED.
Data set [3] has as its system P388. Put plainly: Antitumor activity against intraperitoneally implanted P388 leukemia cells in mice expressed as ratio of median survival time for treated group to that of control group at an optimal dose of 0.4 mg/kg. It counts as functional, Mus musculus. Particulars: route intraperitoneal.
Data set [4] in a line: Partition coefficient (logP). It counts as physicochemical. Particulars: octanol/water.
Data set [5] deals with B16. Put plainly: Antitumor activity against subcutaneously B16 melanoma cells in mice expressed as ratio of median survival time for treated group to that of control group at an optimal dose of 0.3 mg/kg. It counts as functional, Mus musculus. Particulars: route subcutaneous.
Data set [6] deals with B16. Put plainly: Antitumor activity against subcutaneously B16 melanoma cells in mice at an optimal dose of 0.3 mg/kg expressed as […] effective dose. It counts as functional. Particulars: Mus musculus, B16, sc, route subcutaneous, read-out: MED.
Data set [7] concerns P388. In words: Antitumor activity against intraperitoneally implanted P388 leukemia cells in mice expressed as ratio of median survival time for treated group to that of control group at an optimal dose of 3.2 mg/kg. It counts as functional, Mus musculus. Particulars: route intraperitoneal.
Data set [8] concerns P388. In words: Antitumor activity against intraperitoneally implanted P388 leukemia cells in mice at an optimal dose of 3.2 mg/kg expressed as […] effective dose. Particulars: Mus musculus, P388, ip, route intraperitoneal, read-out: MED. It counts as functional.
For data set [9], the system named is B16. In words: Antitumor activity against subcutaneously B16 melanoma cells in mice expressed as ratio of median survival time for treated group to that of control group at an optimal dose of 0.2 mg/kg. It counts as functional, Mus musculus. Particulars: route subcutaneous.
The subject of data set [10] is B16. Put plainly: Antitumor activity against subcutaneously B16 melanoma cells in mice expressed as ratio of median survival time for treated group to that of control group at an optimal dose of 0.4 mg/kg. It counts as functional, Mus musculus. Particulars: route subcutaneous.
The subject of data set [11] is B16. In words: Antitumor activity against subcutaneously B16 melanoma cells in mice at an optimal dose of 0.2 mg/kg expressed as […] effective dose. It counts as functional. Particulars: Mus musculus, B16, sc, route subcutaneous, read-out: MED.
In data set [12] the test system is B16. In words: Antitumor activity against subcutaneously B16 melanoma cells in mice at an optimal dose of 0.4 mg/kg expressed as […] effective dose. It counts as functional. Particulars: Mus musculus, B16, sc, route subcutaneous, read-out: MED.
The subject of data set [13] is P388. In words: Antitumor activity against intraperitoneally implanted P388 leukemia cells in mice expressed as ratio of median survival time for treated group to that of control group at an optimal dose of 1.6 mg/kg. It counts as functional, Mus musculus. Particulars: route intraperitoneal.
Data set [14] concerns P388. In words: Antitumor activity against intraperitoneally implanted P388 leukemia cells in mice at an optimal dose of 1.6 mg/kg expressed as […] effective dose. Particulars: Mus musculus, P388, ip, route intraperitoneal, read-out: MED. It counts as functional.
The subject of data set [15] is B16. Put plainly: Antitumor activity against subcutaneously B16 melanoma cells in mice expressed as ratio of median survival time for treated group to that of control group at an optimal dose of 0.8 mg/kg. Particulars: route subcutaneous, 0.8 mg/kg. It counts as functional, Mus musculus.
Data set [16] deals with B16. In words: Antitumor activity against subcutaneously B16 melanoma cells in mice at an optimal dose of 0.8 mg/kg expressed as […] effective dose. It counts as functional, Mus musculus. Particulars: route subcutaneous.
In data set [17] the test system is P388. In words: Antitumor activity against intraperitoneally implanted P388 leukemia cells in mice expressed as ratio of median survival time for treated group to that of control group at an optimal dose of 0.8 mg/kg. It counts as functional, Mus musculus. Particulars: route intraperitoneal.
The subject of data set [18] is P388. Put plainly: Antitumor activity against intraperitoneally implanted P388 leukemia cells in mice at an optimal dose of 0.8 mg/kg expressed as […] effective dose. Particulars: Mus musculus, P388, ip, route intraperitoneal, read-out: MED. It counts as functional.
Data set [19] has as its system P388. In words: Antitumor activity against intraperitoneally implanted P388 leukemia cells in mice expressed as ratio of median survival time for treated group to that of control group at an optimal dose of 0.2 mg/kg. It counts as functional, Mus musculus. Particulars: route intraperitoneal.
In data set [20] the test system is P388. Put plainly: Antitumor activity against intraperitoneally implanted P388 leukemia cells in mice at an optimal dose of 0.2 mg/kg expressed as […] effective dose. Particulars: Mus musculus, P388, ip, route intraperitoneal, read-out: MED. It counts as functional.
Data set [21] relates to P388. Put plainly: Antitumor activity against intraperitoneally implanted P388 leukemia cells in mice at an optimal dose of 0.4 mg/kg expressed as […] effective dose. It counts as functional, Mus musculus. Particulars: route intraperitoneal.
The subject of data set [22] is P388. Put plainly: Antitumor activity against intraperitoneally implanted P388 leukemia cells in mice expressed as ratio of median survival time for treated group to that of control group given in equally divided doses on days 1,4 and 7. It counts as functional, Mus musculus.
Data set [23] relates to B16. Put plainly: Antitumor activity against subcutaneously B16 melanoma cells in mice expressed as ratio of median survival time for treated group to that of control group at an optimal dose of 1-3 mg/kg. It counts as functional, Mus musculus.
Data set [24] relates to B16. In words: Antitumor activity against subcutaneously B16 melanoma cells in mice expressed as ratio of median survival time for treated group to that of control group at an optimal dose of 1.6 mg/kg. It counts as functional, Mus musculus. Particulars: route subcutaneous.
Data set [25] deals with B16. In words: Antitumor activity against subcutaneously B16 melanoma cells in mice at an optimal dose of 1.6 mg/kg expressed as […] effective dose. It counts as functional. Particulars: Mus musculus, B16, sc, route subcutaneous, read-out: MED.
For data set [26], the system named is P388. In words: Antitumor activity against intraperitoneally implanted P388 leukemia cells in mice expressed as ratio of median survival time for treated group to that of control group at an optimal dose of 6.4 mg/kg. It counts as functional, Mus musculus. Particulars: route intraperitoneal.
The test system of data set [27] is P388. In words: Antitumor activity against intraperitoneally implanted P388 leukemia cells in mice at an optimal dose of 6.4 mg/kg expressed as […] effective dose. It counts as functional. Particulars: Mus musculus, P388, ip, route intraperitoneal, read-out: MED.

Where “and” joins values, the source holds several entries; their conditions need not be identical. Equal entries are not always repeated.

In the case of `CO[C@@]12C(COC(N)=O)C3=C(C(=O)C(C)=C(OCCC#N)C3=O)N1CC1NC12` (stereo not given in full), the T/C in the data set on B16 [1] is given as 141%; with P388 [3], 200%. For the same molecule, the minimal effective dose at 1.2 mg/kg in the data set on B16 [2] was 0.8 mg/kg.

As for `COC1=C(C)C(=O)C2=C(C1=O)[C@@H](COC(N)=O)[C@@]1(OC)[C@H]3N[C@H]3CN21` [MITOMYCIN A], the lipophilicity (logP) in [4] is 0.26. For the same molecule, the T/C with B16 [5] is 177%; in the data set with P388 [7], 180%. The minimal effective dose at 0.3 mg/kg in the data set on B16 [6] stood at 0.05 mg/kg. For the same molecule, the minimal effective dose at 3.2 mg/kg with P388 [8] was found to be 0.05 mg/kg.

`CO[C@@]12C(COC(N)=O)C3=C(C(=O)C(C)=C(OC(C)C)C3=O)N1CC1NC12` (stereo not given in full): in data set [4], the logP came to 1.26. Moreover, in the data set on P388 [7], the T/C is given as 174%.

With `CCOC1=C(C)C(=O)C2=C(C1=O)C(COC(N)=O)[C@@]1(OC)C3NC3CN21` (stereo not given in full), the logP in data set [4] is 0.76. In addition, the T/C in the data set on B16 [9] is reported as 215%; in the data set on B16 [10] it was 212%; in the data set with P388 [13] it was 188%. Besides, the minimal effective dose at 0.2 mg/kg in the data set on B16 [11] was determined as 0.1 mg/kg. Further, the minimal effective dose at 0.4 mg/kg with B16 [12] was < 0.4 mg/kg. Moreover, in the data set with P388 [14], the minimal effective dose at 1.6 mg/kg was < 0.05 mg/kg.

As to `C=CCOC1=C(C)C(=O)C2=C(C1=O)C(COC(N)=O)[C@@]1(OC)C3NC3CN21` (stereo not given in full), in data set [4], the logP came to 0.87. Also, in the data set with P388 [13], the T/C came to 156%. The minimal effective dose at 1.6 mg/kg in the data set on P388 [14] is 0.1 mg/kg.

In [4], `COCCOCCOC1=C(C)C(=O)C2=C(C1=O)C(COC(N)=O)[C@@]1(OC)C3NC3CN21` (stereo not given in full) returned a logP of 0.32. For the same molecule, the T/C with B16 [15] was >191% and >265%; in the data set on P388 [17], 225%. Besides, the minimal effective dose at 0.8 mg/kg was 0.4 mg/kg in the data set on B16 [16] (Mus musculus, B16, sc, read-out: MED) and < 0.1 mg/kg in the data set on P388 [18]. The same molecule gave an MED in the data set with B16 [16] of 0.4 mg/kg.

Regarding `CO[C@@]12C(COC(N)=O)C3=C(C(=O)C(C)=C(OCCO)C3=O)N1CC1NC12` (stereo not given in full), the T/C is 178% in the data set on B16 [10]; 217% with P388 [19]; 178% and >328% with P388 [3] (0.4 mg/kg); 194% in the data set with P388 [22]. The minimal effective dose at 0.4 mg/kg in the data set on B16 [12] turned out to be 0.2 mg/kg; in the data set with P388 [21] (Mus musculus, P388, ip, read-out: MED) it was 0.0063 mg/kg. For the same molecule, in the data set with P388 [20], the minimal effective dose at 0.2 mg/kg is < 0.1 mg/kg. This molecule registered an MED in the data set with P388 [21] of 0.0063 mg/kg.

In data set [4], `CO[C@@]12C(COC(N)=O)C3=C(C(=O)C(C)=C(OC4CCOC4)C3=O)N1CC1NC12` (stereo not given in full) returned a logP of 0.79. The T/C in the data set with B16 [23] came to 135%; with B16 [24] it was 198%; in the data set with P388 [7], 178%. Besides, the minimal effective dose at 1.6 mg/kg with B16 [25] is 1.6 mg/kg. For the same molecule, in the data set with P388 [8], the minimal effective dose at 3.2 mg/kg was < 0.05 mg/kg.

With `CO[C@@]12C(COC(N)=O)C3=C(C(=O)C(C)=C(OCc4ccco4)C3=O)N1CC1NC12` (stereo not given in full), the logP in data set [4] was determined as 1.6. Besides, the T/C in the data set on P388 [26] is 139%. Also, the minimal effective dose at 6.4 mg/kg in the data set on P388 [27] amounted to 6.4 mg/kg.

Take `CCOCCOCCOC1=C(C)C(=O)C2=C(C1=O)C(COC(N)=O)[C@@]1(OC)C3NC3CN21` (stereo not given in full): in [4], the lipophilicity (logP) was found to be 0.82. For the same molecule, the T/C in the data set with B16 [10] is given as 196%; in the data set on P388 [13], 167%. Further, the minimal effective dose at 0.4 mg/kg in the data set with B16 [12] was 0.2 mg/kg. Besides, the minimal effective dose at 1.6 mg/kg with P388 [14] is < 0.1 mg/kg.

In the case of `CO[C@@]12C(COC(N)=O)C3=C(C(=O)C(C)=C(OCCN4CCOCC4)C3=O)N1CC1NC12` (stereo not given in full), in [4], the logP is 0.49. Moreover, the results for the T/C in the data set on B16 [10] and in the data set on P388 [7] were 113% and 256%, respectively. Also, the minimal effective dose at 3.2 mg/kg with P388 [8] was < 0.05 mg/kg.

`CO[C@@]12C(COC(N)=O)C3=C(C(=O)C(C)=C(OCCCCl)C3=O)N1CC1NC12` (stereo not given in full) came in with a logP in [4] of 1.65. Also, the T/C in the data set on P388 [7] was 150%. Further, in the data set with P388 [8], the minimal effective dose at 3.2 mg/kg was 0.2 mg/kg.
